Columns and labels:
C57BL/6 mice = experiment: Plasma lipid analysis in C57BL/6 mice; assay type: in vivo, mouse; conditions: oral treatment
Description: FIG. 8. Plasma lipid levels in animals treated with LXR agonist T0901317. The concentrations of (A) plasma triglycerides and (B) HDL-cholesterol for C57BL/6 mice (n=5, for each treatment group, M, males, F, females). (C) Separation of Golden Syrian hamster plasma by fast protein liquid chromatography (FPLC) in combination with analysis of the triglyceride content across PPLC fractions. Lipid data are reported as the mean ±SD for the number of determinations (animals) described in each experiment. Statistical significance (kybd) was defined as P<0.05 (ANOVA using SAS programming statistical test for controls and LXR agonist-treated animals). C57BL/6 mice (Charles River Laboratories) were between 6 and 10 wk old and weighed ˜20-30 g at the initiation of treatment. Golden Syrian Hamsters (Harlan Sprague-Dawley) were between 12 and 16 wk old (80-150 g). Animals were fed regular chow diets containing ˜4% fat and 0.02% cholesterol (PMI Pi-colab 5053 Chow). LXRα and β−/− mice were reared at the University of Texas Southwestern (UTSW) Medical Center at Dallas in accordance with the Institutional Animal Care and Research Advisory Committee at the UTSW Medical Center. Mice at UTSW were maintained on a 12 h light/12 h dark cycle and fed ad libitum a cereal-based mouse chow diet (No. 7001, Harlan Teklad). Plasma was prepared from euthanized mice using standard centrifugation techniques and analyzed for plasma total cholesterol, HDL cholesterol, and triglyceride concentrations using a Hitachi 704 Clinical Analyzer. FPLC of plasma lipoproteins was accomplished using 200 μL aliquots of pooled plasma (from three to five animals) and fractionated on Superose 6 columns (Pharmacia). Cholesterol, triglyceride, and phospholipid concentrations in the fractions were determined enzymatically with reagents from Boehringer, Sigma, and Wako, respectively. Hepatic lipids were extracted and analyzed for triglyceride essentially as described (Bucolo, G. and David, H., Clin. Chem. 19:476-482 (1973); Yokode et al., Science 250:1273-1275 (1990)).

mouse liver mRNA = experiment: Northern blot analysis of hepatic gene expression in treated mice; assay type: in vivo
Method: FIG. 9. Northern blot analysis. Total RNA was isolated from the tissues indicated from mice (A,B,C) and hamsters (D). The numerical data shown with each figure represents the fold increase (+) or decrease (-) of expression relative to corresponding vehicle-treated controls. (E) HepG2 cells were incubated in culture media with or without cycloheximide (cyclohex). Total RNA extraction and purification for Northern blot analysis was accomplished using the TRI reagent (Molecular Research Center). […] Mouse gene expression was assessed by Northern blot analysis using random primed, ^32P-labeled, cDNA probes that were generated using the primers described in FIG. 11. Hybridization signals were quantified using a phosphoimager (Molecular Dynamics) and standardized against GAPDH controls. Mouse cDNA probes for the numerous genes analyzed were prepared using primers from mouse liver or intestinal cDNA as template. The SREBP-2 cDNA was a gift from J. D. Horton (University of Texas Southwestern Medical Center, Dallas); mouse and hamster CYP7[…]. W. Russell (University of Texas Southwestern Medical Center, Dallas). SCD-1 was a gift from J. Ntambi (University of Wisconsin, Madison), and apoD was kindly provided by […] (University of Quebec, Montreal).

HepG2 cells and mice = experiment: Gene expression microarrays (GEM) of LXR agonist-treated HepG2 cells and mice; assay type: in vivo, mouse; conditions: fold increase vs control; mice 5 mg/kg p.o. 7 d
Method: Total RNA extraction and purification for Northern blot analysis was accomplished using the TRI reagent (Molecular Research Center).
To understand the mechanism whereby LXR agonist increased plasma triglycerides, changes in global gene expression in response to LXR agonist treatment were assessed by gene expression micrarrays (GEM) and Northern blot analysis. The GEM experiments were carried out using RNA derived from control and LXR agonist-treated HepG2 cells and mice. […] In addition, a prominent subset of >20 fatty acid metabolism-associated genes was increased by LXR agonist. This subset included fatty acid synthase, carnitine palmitoyltransferase 1, acyl-CoA-binding protein, acyl glycerol-3 phosphate acyltransferase, fatty acid amide hydrolase, acyl carrier protein, fatty acid binding and transport proteins, and colipase, a small protein cofactor required by lipase for the efficient hydrolysis of dietary lipid. Up-regulation of liver and intestinal phosphoethanolamine cytidylyltransferase, a key regulatory enzyme in the CDP-ethanolamine pathway for phosphatidylethanolamine synthesis, was also noted.

[1] = system: LXRα/β−/− mice liver mRNA; experiment: Northern blot analysis of hepatic mRNA in LXRα/β−/− mice; assay type: in vivo, mouse
Method: FIG. 10. […] Pooled plasma (50 μL from each of five mice per group) was fractionated and lipids analyzed as described. Shown are the concentrations for (A) FPLC triglyceride, (B) FPLC phospholipid, and (C) hepatic triglyceride. (D) Northern blot analysis of hepatic SREEP-I, SREBP-2, SCD-1, FAS, and ACC mRNA levels.

O=S(=O)(c1ccccc1)N(CC(F)(F)F)c1ccc(C(O)(C(F)(F)F)C(F)(F)F)cc1 [T0901317, N-(2,2,2-trifluoro-ethyl)-N-[4-(2,2,2-trifluoro-1-hydroxy-1-trifluoromethyl-ethyl)-phenyl]-benzenesulfonamide]
HDL-phospholipid (C57BL/6 mice): comparable increases | plasma total cholesterol (mainly HDL cholesterol) (C57BL/6 mice): comparable increases | plasma triglycerides (C57BL/6 mice): significant elevations | plasma very low density lipoproteins (VLDL) triglycerides (C57BL/6 mice): Increases | apoAI, apoAII, apoD, apoE, MTP and NaTCP gene expression (mouse liver mRNA): remained unaffected | steady-state mRNA levels of CYP7A1, SCD-1, and SREBP-1 (mouse liver mRNA): increased in a dose-dependent manner | transcript level of 3-hydroxy-3-methylglutaryl coenzyme A synthase (HMG CoA S) (mouse liver mRNA): consistently reduced | transcript level of squalene synthase (SQS) (mouse liver mRNA): consistently reduced | SR-BI, apoCIII and DCAT transcript levels (mouse liver mRNA; data not shown): did not appear to vary in level | hepatic ACC gene activity (Northern blot) (mouse liver mRNA; fold increase vs vehicle): twofold | hepatic FAS gene activity (Northern blot) (mouse liver mRNA; fold increase vs vehicle): threefold | hepatic SCD-1 gene activity (Northern blot) (mouse liver mRNA; fold increase vs vehicle): up to ninefold | SREBP-1 expression (GEM) (HepG2 cells and mice): twofold | fatty acid synthase expression (GEM) (HepG2 cells and mice): twofold | regulation of the SREBP-1, SCD-1, FAS, or ACC gene [1]: lack of regulation
